Reference: ChEMBL document CHEMBL5291721, “A preclinical secondary pharmacology resource illuminates target-adverse drug reaction associations of marketed drugs” (Nat Commun, 2023)

Legend:
Bile acid receptor [1] = target: T1, Bile acid receptor (Homo sapiens, UniProt Q96RI1); assay type: functional
T1 sequence (Q96RI1 whole entry): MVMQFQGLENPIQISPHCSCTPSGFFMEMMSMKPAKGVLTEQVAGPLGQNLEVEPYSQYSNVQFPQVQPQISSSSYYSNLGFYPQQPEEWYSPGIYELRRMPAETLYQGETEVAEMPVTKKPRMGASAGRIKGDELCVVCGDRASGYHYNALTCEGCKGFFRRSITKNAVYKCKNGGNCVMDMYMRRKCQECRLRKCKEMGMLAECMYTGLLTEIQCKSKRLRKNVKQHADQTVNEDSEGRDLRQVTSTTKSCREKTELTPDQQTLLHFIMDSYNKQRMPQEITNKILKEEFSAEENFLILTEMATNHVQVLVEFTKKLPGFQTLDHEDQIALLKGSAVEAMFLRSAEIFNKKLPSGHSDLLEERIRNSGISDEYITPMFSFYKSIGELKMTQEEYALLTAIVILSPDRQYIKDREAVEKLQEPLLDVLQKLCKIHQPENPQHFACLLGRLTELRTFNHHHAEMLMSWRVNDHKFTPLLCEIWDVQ

Bile acid receptor [2] = target: T1, Bile acid receptor; assay type: functional; remark: listed apart in the source
[3] = target: T2, Retinoic acid receptor beta (Homo sapiens, UniProt P10826); assay type: functional, cell-based
T2 sequence (P10826 whole entry): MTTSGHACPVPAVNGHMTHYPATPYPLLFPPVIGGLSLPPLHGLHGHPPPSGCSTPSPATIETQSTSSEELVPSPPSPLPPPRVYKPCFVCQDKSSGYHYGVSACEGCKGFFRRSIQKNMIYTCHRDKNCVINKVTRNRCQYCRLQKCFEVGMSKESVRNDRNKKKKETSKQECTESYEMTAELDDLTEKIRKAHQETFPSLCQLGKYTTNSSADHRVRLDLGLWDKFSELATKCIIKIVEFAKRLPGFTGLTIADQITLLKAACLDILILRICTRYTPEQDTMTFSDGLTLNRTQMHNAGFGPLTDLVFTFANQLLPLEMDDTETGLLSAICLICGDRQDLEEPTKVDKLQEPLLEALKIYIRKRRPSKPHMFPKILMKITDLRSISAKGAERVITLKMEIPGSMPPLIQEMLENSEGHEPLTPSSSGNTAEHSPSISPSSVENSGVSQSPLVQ

[4] = target: T3, Oxysterols receptor LXR-beta (Homo sapiens, UniProt P55055); assay type: functional
T3 sequence (P55055 whole entry): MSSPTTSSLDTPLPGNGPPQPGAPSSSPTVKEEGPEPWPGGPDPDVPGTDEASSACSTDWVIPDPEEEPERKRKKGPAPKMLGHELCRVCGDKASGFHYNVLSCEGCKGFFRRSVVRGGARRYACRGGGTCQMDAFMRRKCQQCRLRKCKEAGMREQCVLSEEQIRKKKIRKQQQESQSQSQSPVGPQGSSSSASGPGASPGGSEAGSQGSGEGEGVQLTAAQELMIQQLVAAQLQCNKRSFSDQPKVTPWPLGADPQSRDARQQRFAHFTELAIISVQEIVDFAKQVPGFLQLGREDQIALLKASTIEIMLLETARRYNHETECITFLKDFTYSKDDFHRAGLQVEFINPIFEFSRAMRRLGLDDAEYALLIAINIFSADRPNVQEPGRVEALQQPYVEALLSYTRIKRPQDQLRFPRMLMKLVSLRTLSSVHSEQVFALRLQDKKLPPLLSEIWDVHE

[5] = target: T4, Retinoic acid receptor gamma (Homo sapiens, UniProt P13631); assay type: functional, cell-based
T4 sequence (P13631 whole entry): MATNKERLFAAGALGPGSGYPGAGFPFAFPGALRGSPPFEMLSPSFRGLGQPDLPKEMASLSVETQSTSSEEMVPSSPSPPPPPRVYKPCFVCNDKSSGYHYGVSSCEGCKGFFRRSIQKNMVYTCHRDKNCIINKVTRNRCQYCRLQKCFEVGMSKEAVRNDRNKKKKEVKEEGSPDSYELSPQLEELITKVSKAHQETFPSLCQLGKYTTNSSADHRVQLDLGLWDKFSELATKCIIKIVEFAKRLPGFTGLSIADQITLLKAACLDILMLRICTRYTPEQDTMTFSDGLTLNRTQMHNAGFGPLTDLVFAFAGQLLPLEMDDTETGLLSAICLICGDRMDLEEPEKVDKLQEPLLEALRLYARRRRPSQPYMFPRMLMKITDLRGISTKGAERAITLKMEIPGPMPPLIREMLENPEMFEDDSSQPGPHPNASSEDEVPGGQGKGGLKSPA

[6] = target: T5, Retinoic acid receptor alpha (Homo sapiens, UniProt P10276); assay type: functional, cell-based
T5 sequence (P10276 whole entry): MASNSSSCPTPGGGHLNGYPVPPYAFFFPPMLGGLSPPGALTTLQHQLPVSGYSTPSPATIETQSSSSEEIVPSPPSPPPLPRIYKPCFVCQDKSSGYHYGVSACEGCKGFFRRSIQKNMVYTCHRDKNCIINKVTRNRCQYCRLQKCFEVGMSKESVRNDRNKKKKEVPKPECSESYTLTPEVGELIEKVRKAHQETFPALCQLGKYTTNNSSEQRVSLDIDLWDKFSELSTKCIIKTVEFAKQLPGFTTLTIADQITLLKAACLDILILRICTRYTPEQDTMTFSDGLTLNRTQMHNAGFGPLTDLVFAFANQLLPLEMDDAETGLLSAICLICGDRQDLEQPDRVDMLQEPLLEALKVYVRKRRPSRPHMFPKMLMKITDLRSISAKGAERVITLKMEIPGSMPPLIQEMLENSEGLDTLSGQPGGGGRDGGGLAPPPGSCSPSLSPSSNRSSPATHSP

[7] = target: T4, Retinoic acid receptor gamma; assay type: functional, cell-based; remark: listed apart in the source
[8] = target: T6, Muscarinic acetylcholine receptor M1 (Homo sapiens, UniProt P11229)
T6 sequence (P11229 whole entry): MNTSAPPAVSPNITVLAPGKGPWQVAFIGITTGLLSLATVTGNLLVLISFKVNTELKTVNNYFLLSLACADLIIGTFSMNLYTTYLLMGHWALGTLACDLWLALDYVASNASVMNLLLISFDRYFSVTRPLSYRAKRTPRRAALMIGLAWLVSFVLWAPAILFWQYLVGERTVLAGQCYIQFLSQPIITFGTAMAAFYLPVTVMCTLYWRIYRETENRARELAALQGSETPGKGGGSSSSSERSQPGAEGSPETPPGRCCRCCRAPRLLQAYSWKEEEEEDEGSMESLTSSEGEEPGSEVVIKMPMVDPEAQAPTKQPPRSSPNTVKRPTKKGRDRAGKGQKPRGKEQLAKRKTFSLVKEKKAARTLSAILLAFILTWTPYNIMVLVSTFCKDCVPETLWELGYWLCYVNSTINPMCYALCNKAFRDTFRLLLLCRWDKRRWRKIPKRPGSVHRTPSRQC
Note: assay procedure not described here.

SMILES	AC50 (Bile acid receptor [1])	AC50 (Bile acid receptor [2])	AC50 [3]	AC50 [4]	AC50 [5]	AC50 [6]	AC50 [7]	AC50 [8]
COc1ccc2c(c1)C(=O)N(CCc1ccc(S(=O)(=O)NC(=O)NC3CCCCC3)cc1)C(=O)C2(C)C [GLIQUIDONE]	> 10 µM	> 30 µM	> 30 µM	2.7 µM	> 30 µM	> 30 µM	2.6 µM	
Cc1cc2c(cc1CC(=O)c1sccc1S(=O)(=O)Nc1onc(C)c1Cl)OCO2 [SITAXENTAN]								> 30 µM
